According to paper PMC5557811 (Scientific Reports, 2017):
pIC50: −log10 of the molar value. Entries after “also recorded” stand apart in the source; their conditions may differ.

Key:
[1] = test system: Blumeria graminis f. sp. hordei; settings: cited from earlier work
Text: (§1) Insects are well protected against pathogens by an immunity-related arsenal of effector molecules including antimicrobial peptides (AMPs). Some AMPs are active against a broad spectrum of microbes, whereas the activity of others is restricted to certain types of bacteria or fungi. Insects produce a large number of antifungal peptides to protect them against fungal pathogens and parasites, and these peptides often interact with intracellular targets to inhibit key physiological processes such as DNA and protein synthesis, cell cycle progression and metabolic activity[1]–[3]. AMPs therefore offe ...

Piriformospora indica = settings: cited from earlier work
Text: as §1

SdhB = format: binding, Fusarium graminearum
Fusarium graminearum [2] = settings: read-out: IC50 against F. graminearum; cited from earlier work
[3] = test system: β(1,3)-glucanosyltransferase Gel1; settings: cited from earlier work
Fusarium graminearum [4] = settings: in vivo; cited from earlier work
[5] = test system: SDH activity of P. indica mitochondrial SQR (complex II); format: biochemical, Piriformospora indica
[6] = test system: SDH activity of F. graminearum mitochondrial SQR (complex II); format: biochemical, Fusarium graminearum; settings: absorbance 600 nm, 25 °C
yeast strain Y2HGold = assay: Bait toxicity test in yeast; format: cell-based, Saccharomyces cerevisiae; settings: pGBKT7::Mtk vs pGBKT7 empty vector, growth on SDO/–Trp plates; data not shown

metchnikowin (HRHQGPIFDTRPSPFNPNQPRPGPIY; Metchnikowin synthetic; UniProt Q24395 27-52, looked up) [Mtk, 26-residue proline-rich linear antifungal peptide from Drosophila melanogaster; synthetic Mtk from Pepmic used in SDH assay]
antifungal activity when expressed in barley [1]: acts specifically against
antifungal activity when expressed in barley (Piriformospora indica): inactive
YFP fluorescence of Mtk constructs without a fusion partner (auto-activation) (SdhB; Mtk constructs with YFPCempty or YFPNempty, cytoplasm and nucleus): produced YFP fluorescence in both the cytoplasm and nucleus
YFP fluorescence on co-expression of Mtk and SdhB (SdhB; Nicotiana benthamiana leaves, 3 days after injection, Mtk and SdhB YFP fusions): did not result in detectable YFP fluorescence
pIC50 (Fusarium graminearum [2]): 6.00
interference with F. graminearum cell wall biosynthesis by targeting Gel1 [3]: interferes with F. graminearum cell wall biosynthesis
antifungal activity when expressed in barley (Fusarium graminearum [4]): acts specifically against
reduction in mitochondrial SDH activity [5]: unaffected; also recorded: no reduction was observed; also recorded: did not inhibit
reduction in mitochondrial SDH activity, significance by concentration ([6]; Mtk 2, 1, 0.5, 0.25, 0.12 and 0.06 µM, all concentrations except the lowest, 30 min, vs control without Mtk, means of three independent experiments): All concentrations except the lowest caused significant reductions
maximal inhibition of mitochondrial SDH activity ([6]; synthetic Mtk, tested at 0.06, 0.12, 0.25, 0.5, 1 and 2 µM, isolated mitochondria, DCIP colorimetric, kinetic 30 min, relative to control (0 µM peptide = 100%), mean of three independent experiments, in triplicate): up to 52%
toxicity towards yeast cells (yeast strain Y2HGold): not independently toxic
